Measurements as given in patent publication US6291657A (priority 1993, dated 2001).
Entries after “also recorded” stand apart in the source; their conditions may differ. Read-outs that look alike come from different tables or passages of the source.

What was measured:
[1] = tested on: glycolipid biosynthesis in HL-60 cells; assay: Inhibition of glycolipid biosynthesis in HL-60 cells, [14C]-palmitic acid labelling, 1D-TLC; format: cell-based, human; conditions: for minimal effective concentration: Homo sapiens;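 for all read-outs here: cells cultured 24 h with or without test compound, total cellular lipids resolved by one-dimensional TLC and detected by autoradiography, inhibition shown as missing Glc-Cer and gangliosides versus untreated cells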
[2] = tested on: Glc-Cer accumulation in WEHI-3B murine macrophage cells; assay: In vitro Gaucher's disease model: CBE induced glycolipid storage in WEHI-3B cells, 1D-TLC; format: cell-based; conditions: for prevention of glycolipid storage in in vitro Gaucher's disease model (in words): CBE
Experimental: In this model, the murine macrophage cell line WEHI-3B was cultured in the presence of an irreversible glucocerebrosidase inhibitor, conduritol β epoxide (CBE), to mimic the inherited disorder found in Gaucher's disease. WEHI-3B cells are well-known, widely distributed and readily available murine macrophage cells. They are described in Cancer Res. 37, 546-550 (1977), and are readily available from the American Type Culture Collection, Rockville, Md, under accession number ATCC TIB 68. The compounds of the invention prevent lysosomal glycolipid storage which is useful for the management of Gaucher's disease and other glycolipid storage disorders as illustrated hereinafter in Table 3. Gaucher's disease is an autosomal recessive disorder characterized by an impaired ability to degrade glucocerebroside (glucosyl ceramide, Glc-Cer) due to mutations in the gene encoding β-glucocerebrosidase (β-D-glucosyl-N-acylsphingosine glucohydrolase, EC 3.2.1.45). This defect results in the lysosomal accumulation of Glc-Cer in cells of the macrophage-monocyte system [Barranger and Ginns, in The Metabolic Basis of Inherited Diseases, ed. Scriver et al., pp. 1677-1698, McGraw-Hill, New York, (1989); Beutler, Science 256, 794-799 (1992)]. By slowing the rate of glycolipid synthesis, the impaired catabolism of Glc-Cer can be offset, thereby leading to the maintenance of a balanced level of Glc-Cer.
FIGS. 5 and 6 show the analysis of NB-DNJ and NB-DGJ in an in vitro Gaucher's disease model.
The in vitro Gaucher's disease model was prepared as follows: WEHI-3B cells (American Type Culture Collection, Rockville, Md., U.S.A.) were maintained in logarithmic phase growth for 14 days in RPMI-1640 medium, 10% FCS, in the presence or absence of 50 μM conduritol β epoxide (CBE, Toronto Research Chemicals, Downsview, Canada) with or without NB-DNJ or NB-DGJ. Cells were passaged every 3 days and compound concentrations maintained throughout. Equal cell numbers (5×10^6) were harvested, extracted in 1 ml chloroform: methanol (2:1 v/v) overnight at 4° C., the extracts centrifuged, the chloroform:methanol extract retained and the pellet re-extracted as above for 2 hr. at room temperature. Pooled extracts were dried under nitrogen, re-dissolved in 10 μl chloroform:methanol (2:1 v/v) and separated by 1D-TLC in chloroform:methanol:water […]. Plates were air dried and visualized using α-naphthol (1% w/v in methanol) followed by 50% (v/v) sulphuric acid.

[3] = tested on: HL-60 cells; assay: Cytotoxicity in the dose range tested; format: cell-based, human

CCCCN1C[C@H](O)[C@@H](O)[C@@H](O)[C@H]1CO [NB-DGJ, N-butyl deoxygalactonojirimycin]
lipid species whose biosynthesis was inhibited ([1]; HL-60, 500 μM, 1D-TLC): inhibited the biosynthesis of Glc-Cer, gangliosides and an unknown lipid species
inhibition of glycolipid biosynthesis ([1]; HL-60, 500 μM, 1D-TLC (FIG. 1)): specifically inhibited glycolipid biosynthesis
effect of N-alkyl chain length on inhibition of glycolipid biosynthesis (loss of detectable Glc-Cer) ([1]; HL-60, 0.5 mM, 1D-TLC (FIG. 4), listed as N-butyl DGJ): completely prevented glycolipid biosynthesis; also recorded: completely inhibited glycolipid biosynthesis
minimal effective concentration ([1]; HL-60, relatively low concentration, read-out: concentration inhibitory of glycolipid biosynthesis): ~50 µM
minimal effective concentration ([1]; HL-60, 1D-TLC (FIG. 3), partial inhibition, read-out: concentrations as low as which partial inhibition occurred): 0.5 to 5 µM
prevention of glycolipid storage in in vitro Gaucher's disease model (in words) [2]: as effective as NB-DNJ
prevention of glycolipid storage in in vitro Gaucher's disease model (in words) ([2]; listed as N-butyl DGJ): offset glucoceramide accumulation
minimal effective concentration ([2]; Mus musculus, WEHI3B, 336 h, 50 μM CBE, 14 days (FIG. 5), read-out: dose range preventing CBE induced glycolipid storage): 5 to 50 µM
cytotoxicity [3]: non-cytotoxic
